Tested on: MDA-MB-468 multi-cell spheroids, viability
Assay: Anticancer human tumor MDA-MB-468 cell line growth inhibition [IpAb];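 note: spheroids exposed to agents for seven days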;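 for viability, T/C: 100% = DMSO vehicle control viability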
Conditions: for IC50: curve of first compound; for viability, T/C: stronger effect = lower value
Summary of the method: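 Combinations with ipatasertib or abemaciclib were tested on tumour spheroids holding HUVEC (25%) and MSC (15%) alongside 60% malignant cells. Top concentration was at or near clinical Cmax (10 microM if undefined), descending in half-log steps.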

[1] = second compound 0.01 µM, first compound 0.00949 µM
[2] = second compound 0.01 µM, first compound 0.03 µM
[3] = second compound 0.01 µM, first compound 0.0949 µM
[4] = second compound 0.01 µM, first compound 0.3 µM
[5] = second compound 0.0316 µM, first compound 0.00949 µM
[6] = second compound 0.0316 µM, first compound 0.03 µM
[7] = second compound 0.0316 µM, first compound 0.0949 µM
[8] = second compound 0.0316 µM, first compound 0.3 µM
[9] = second compound 0.1 µM, first compound 0.00949 µM
[10] = second compound 0.1 µM, first compound 0.03 µM
[11] = second compound 0.1 µM, first compound 0.0949 µM
[12] = second compound 0.1 µM, first compound 0.3 µM
[13] = second compound 0.316 µM, first compound 0.00949 µM
[14] = second compound 0.316 µM, first compound 0.03 µM
[15] = second compound 0.316 µM, first compound 0.0949 µM
[16] = second compound 0.316 µM, first compound 0.3 µM
[17] = second compound 1 µM, first compound 0.00949 µM
[18] = second compound 1 µM, first compound 0.03 µM
[19] = second compound 1 µM, first compound 0.0949 µM
[20] = second compound 1 µM, first compound 0.3 µM

| SMILES | IC50 (second compound 0.01 µM) | IC50 (second compound 0.0316 µM) | IC50 (second compound 0.1 µM) | IC50 (second compound 0.316 µM) | IC50 (second compound 1 µM) | viability, T/C [1] | viability, T/C [2] | viability, T/C [3] | viability, T/C [4] | viability, T/C [5] | viability, T/C [6] | viability, T/C [7] | viability, T/C [8] | viability, T/C [9] | viability, T/C [10] | viability, T/C [11] | viability, T/C [12] | viability, T/C [13] | viability, T/C [14] | viability, T/C [15] | other results |
| --- | --- | --- | --- | --- | --- | --- | --- | --- | --- | --- | --- | --- | --- | --- | --- | --- | --- | --- | --- | --- | --- |
| CC(=O)c1c(C)c2cnc(Nc3ccc(N4CCNCC4)cn3)nc2n(C2CCCC2)c1=O + CCN1CCN(Cc2ccc(Nc3ncc(F)c(-c4cc(F)c5nc(C)n(C(C)C)c5c4)n3)nc2)CC1 | > 0.3 µM | > 0.3 µM | > 0.3 µM | > 0.3 µM | > 0.3 µM | 93.6% | 88.4% | 84% | 96.5% | 85.5% | 89.1% | 82.6% | 86.6% | 90.8% | 92.8% | 85.3% | 95.7% | 93.7% | 83.7% | 88% | viability, T/C (second compound 0.01 µM, first compound 0.000949 µM): 99.7%; viability, T/C (second compound 0.01 µM, first compound 0.003 µM): 97.4%; viability, T/C (second compound 0.0316 µM, first compound 0.000949 µM): 92.2%; viability, T/C (second compound 0.0316 µM, first compound 0.003 µM): 99.2%; viability, T/C (second compound 0.1 µM, first compound 0.000949 µM): 101%; viability, T/C (second compound 0.1 µM, first compound 0.003 µM): 96.1%; viability, T/C (second compound 0.316 µM, first compound 0.000949 µM): 106%; viability, T/C (second compound 0.316 µM, first compound 0.003 µM): 93.9%; viability, T/C [16]: 108%; viability, T/C (second compound 1 µM, first compound 0.000949 µM): 74.7%; viability, T/C (second compound 1 µM, first compound 0.003 µM): 75%; viability, T/C [17]: 77.5%; viability, T/C [18]: 71.4%; viability, T/C [19]: 83.1%; viability, T/C [20]: 74.6% |
| CC(C)(C)c1cnc(CSc2cnc(NC(=O)C3CCNCC3)s2)o1 + CCN1CCN(Cc2ccc(Nc3ncc(F)c(-c4cc(F)c5nc(C)n(C(C)C)c5c4)n3)nc2)CC1 | 0.105 µM | 0.0794 µM | 0.115 µM | 0.0623 µM | 0.0426 µM | 110% | 102% | 55.2% | 0.29% | 94.8% | 92% | 42.3% | 0.24% | 93.6% | 91.7% | 59.9% | 0.22% | 90.8% | 89.8% | 27.1% | viability, T/C (second compound 0.01 µM, first compound 0.949 µM): 0.19%; viability, T/C (second compound 0.01 µM, first compound 3 µM): 0.31%; viability, T/C (second compound 0.0316 µM, first compound 0.949 µM): 0.19%; viability, T/C (second compound 0.0316 µM, first compound 3 µM): 0.32%; viability, T/C (second compound 0.1 µM, first compound 0.949 µM): 0.22%; viability, T/C (second compound 0.1 µM, first compound 3 µM): 0.29%; viability, T/C [16]: 0.32%; viability, T/C (second compound 0.316 µM, first compound 0.949 µM): 0.26%; viability, T/C (second compound 0.316 µM, first compound 3 µM): 0.31%; viability, T/C [17]: 85.6%; viability, T/C [18]: 70.8%; viability, T/C [19]: 2.25%; viability, T/C [20]: 0.45%; viability, T/C (second compound 1 µM, first compound 0.949 µM): 0.35%; viability, T/C (second compound 1 µM, first compound 3 µM): 0.37% |
